In US12655158B2, “Biomimetic G-quartet compounds” (CENTRE NATIONAL DE LA RECHERCHE SCIENTIFIQUE, priority 2020, dated 2026):

Tested on: doubly labelled quadruplex F21T (F-21-T, FAM-d[GGGTTAGGGTTAGGGTTAGGG]-TAMRA)
Assay: FRET-melting assay with F21T quadruplex
Type: binding
Settings: F21T 0.2 μM, Caco.K buffer, 5 molar equivalents of TASQ; means of 3 experiments
Method: The lyophilized DNA strands (purchased from Eurogentec, Seraing, Belgium) were firstly diluted at 500 μM in deionized water (18.2 MΩ·cm resistivity). The DNA batch was prepared in a Caco.K buffer, comprised of 10 mM lithium cacodylate buffer (pH 7.2) plus 10 mM KCl/90 mM LiCl.
The quadruplex structure was prepared by mixing 40 μL of the constitutive strand (500 μM) with 8 μL of a lithium cacodylate buffer solution (100 mM, pH 7.2), plus 8 μL of a KCl/LiCl solution (100 mM/900 mM) and 24 μL of water. The final DNA concentration was theoretically 250 μM. The actual concentration of the DNA was determined through a dilution to 1 μM theoretical concentration through UV spectral analysis at 260 nm (after 5 min at 90° C.) with the following molar extinction coefficient values: 268300 M^−1·cm^−1 (F21 T). The higher-order DNA structure was folded as follows: solutions were heated (90° C., 5 min), cooled on ice (7 h) and then stored at least overnight (4° C.). […] Final data were analyzed with Excel (Microsoft Corp.) and OriginPro® 9.1 (OriginLab Corp.). […]
The apparent affinity of each G4-ligands is quantified via fluorescence resonance energy transfer (FRET)-melting experiments. […]

Row | SMILES | Thermal stabilization ΔT1/2 [°C]
1 | NCCN(CC(=O)NCCNC(=O)CN1CCN(CC(=O)NCCNC(=O)CN(CCN)C(=O)Cn2cnc3c(=O)[nH]c(N)nc32)CCN(CC(=O)NCCNC(=O)CN(CCN)C(=O)Cn2cnc3c(=O)[nH]c(N)nc32)C(CNC(=O)CCCC[C@H]2SCC3NC(=O)NC32)CN(CC(=O)NCCNC(=O)CN(CCN)C(=O)Cn2cnc3c(=O)[nH]c(N)nc32)CC1)C(=O)Cn1cnc2c(=O)[nH]c(N)nc21 (some centres unmarked) [BioTASQ] | 2.2
2 | NCCN(CC(=O)NCCNC(=O)CN1CCN(CC(=O)NCCNC(=O)CN(CCN)C(=O)Cn2cnc3c(=O)[nH]c(N)nc32)CCN(CC(=O)NCCNC(=O)CN(CCN)C(=O)Cn2cnc3c(=O)[nH]c(N)nc32)CCN(CC(=O)NCCNC(=O)CN(CCN)C(=O)Cn2cnc3c(=O)[nH]c(N)nc32)CC1)C(=O)Cn1cnc2c(=O)[nH]c(N)nc21 [^PNADOTASQ] | 9.1
